Measurements reported in BindingDB's records for doi:10.1007/s00259-006-0324-y (Columbia University, 2007).

What was measured:
Dopamine receptor D4 = Dopamine receptor D4 (Bos taurus, UniProt Q8WNT0)
[1] = target: 5-hydroxytryptamine receptor 2B (Bos taurus, UniProt Q8MI09)
Histamine receptor H3 = Histamine receptor H3 (Bos taurus, UniProt F1MML8)
[2] = target: Beta-2 adrenergic receptor (Bos taurus, UniProt Q28044)
[3] = target: Muscarinic acetylcholine receptor M2 (Bos taurus, UniProt P41985)
Cannabinoid receptor 2 = Cannabinoid receptor 2 (Bos taurus, UniProt E1B9P2)
Beta-arrestin-2 = Beta-arrestin-2 (Bos taurus, UniProt P32120)
Glutamate receptor [4] = target: Glutamate receptor (Bos taurus, UniProt E1BGZ0)
Neuromedin-K receptor = Neuromedin-K receptor (Bos mutus, UniProt L8IYF9)
[5] = target: 5-hydroxytryptamine receptor 7 (Bos mutus, UniProt L8II28)
[6] = target: Multidrug resistance protein 1 (Bos taurus, UniProt Q65A17)
Chain of Multidrug resistance protein 1 (Q65A17 whole entry): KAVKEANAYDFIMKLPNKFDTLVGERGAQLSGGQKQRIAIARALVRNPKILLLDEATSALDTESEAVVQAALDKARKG

Mu-type opioid receptor = Mu-type opioid receptor (Bos taurus, UniProt P79350)
Chain of Mu-type opioid receptor (P79350 whole entry): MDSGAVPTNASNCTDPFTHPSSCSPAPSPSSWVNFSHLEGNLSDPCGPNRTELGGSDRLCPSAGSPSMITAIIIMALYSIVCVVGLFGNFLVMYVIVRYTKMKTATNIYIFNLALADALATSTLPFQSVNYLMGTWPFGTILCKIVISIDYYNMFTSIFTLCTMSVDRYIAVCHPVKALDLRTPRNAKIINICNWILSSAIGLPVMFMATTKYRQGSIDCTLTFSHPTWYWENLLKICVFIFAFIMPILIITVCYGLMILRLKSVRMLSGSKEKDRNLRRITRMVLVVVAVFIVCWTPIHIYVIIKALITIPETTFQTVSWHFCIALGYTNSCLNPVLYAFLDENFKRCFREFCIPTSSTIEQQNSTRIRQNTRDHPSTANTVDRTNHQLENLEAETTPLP

Beta-arrestin-1 = Beta-arrestin-1 (Bos taurus, UniProt P17870)
Vasopressin V2 receptor = Vasopressin V2 receptor (Bos taurus, UniProt P48044)
[7] = target: Vesicle amine transport protein 1 homolog (T. californica)-like (Bos taurus, UniProt Q29RL6)
[8] = target: Solute carrier family 22 member 1 (Bos taurus, UniProt A7MBE0)
Vasopressin V1a receptor = Vasopressin V1a receptor (Bos taurus, UniProt A2VDS9)
D(2) dopamine receptor = D(2) dopamine receptor (Bos taurus, UniProt P20288)
[9] = target: 5-hydroxytryptamine 1D receptor (Bos taurus, UniProt Q8MI13)
Histamine H2 receptor = Histamine H2 receptor (Bos mutus, UniProt L8IRW0)
Nischarin = Nischarin (Bos mutus, UniProt L8IEU8)
Chain of Nischarin (L8IEU8 whole entry): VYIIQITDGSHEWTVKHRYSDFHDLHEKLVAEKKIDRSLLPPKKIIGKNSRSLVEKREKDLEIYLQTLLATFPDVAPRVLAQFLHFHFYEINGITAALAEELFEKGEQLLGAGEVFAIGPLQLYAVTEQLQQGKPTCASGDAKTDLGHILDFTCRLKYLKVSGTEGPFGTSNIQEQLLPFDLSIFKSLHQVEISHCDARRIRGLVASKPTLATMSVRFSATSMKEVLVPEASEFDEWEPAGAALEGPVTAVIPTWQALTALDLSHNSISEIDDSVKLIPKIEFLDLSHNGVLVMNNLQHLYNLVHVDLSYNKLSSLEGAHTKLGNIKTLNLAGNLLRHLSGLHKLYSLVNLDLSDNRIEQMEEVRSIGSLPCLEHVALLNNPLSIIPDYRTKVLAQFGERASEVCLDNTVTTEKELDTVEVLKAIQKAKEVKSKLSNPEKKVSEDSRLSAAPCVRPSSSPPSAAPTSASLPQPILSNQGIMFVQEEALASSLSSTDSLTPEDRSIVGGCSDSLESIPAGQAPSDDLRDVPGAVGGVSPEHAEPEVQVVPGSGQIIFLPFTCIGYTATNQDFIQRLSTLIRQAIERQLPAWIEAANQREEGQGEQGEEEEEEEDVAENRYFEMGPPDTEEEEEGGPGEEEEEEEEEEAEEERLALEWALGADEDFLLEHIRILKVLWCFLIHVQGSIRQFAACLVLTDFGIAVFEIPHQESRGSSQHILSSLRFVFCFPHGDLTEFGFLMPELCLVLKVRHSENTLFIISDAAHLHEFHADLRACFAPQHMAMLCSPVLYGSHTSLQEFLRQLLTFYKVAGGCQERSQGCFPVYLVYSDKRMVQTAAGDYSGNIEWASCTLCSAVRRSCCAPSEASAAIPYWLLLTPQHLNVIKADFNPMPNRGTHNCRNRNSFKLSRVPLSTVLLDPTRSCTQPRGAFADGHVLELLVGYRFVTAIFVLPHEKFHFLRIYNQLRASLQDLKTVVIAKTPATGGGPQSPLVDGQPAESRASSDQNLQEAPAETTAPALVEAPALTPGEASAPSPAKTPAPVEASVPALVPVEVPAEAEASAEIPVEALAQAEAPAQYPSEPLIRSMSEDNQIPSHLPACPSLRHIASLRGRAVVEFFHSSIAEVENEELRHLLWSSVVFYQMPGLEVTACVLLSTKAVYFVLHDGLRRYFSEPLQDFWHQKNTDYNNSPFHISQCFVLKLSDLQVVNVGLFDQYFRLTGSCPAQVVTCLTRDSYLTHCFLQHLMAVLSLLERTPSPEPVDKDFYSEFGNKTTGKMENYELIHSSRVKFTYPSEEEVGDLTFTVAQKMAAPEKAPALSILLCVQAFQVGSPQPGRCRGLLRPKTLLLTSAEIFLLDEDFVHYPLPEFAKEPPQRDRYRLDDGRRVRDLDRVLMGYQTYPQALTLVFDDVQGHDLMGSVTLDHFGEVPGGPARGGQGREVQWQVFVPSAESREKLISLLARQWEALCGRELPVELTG

Protein lifeguard 1 = Protein lifeguard 1 (Bos taurus, UniProt Q32L53)
Histamine H1 receptor = Histamine H1 receptor (Bos taurus, UniProt A5D795)
Chain of Histamine H1 receptor (A5D795 whole entry): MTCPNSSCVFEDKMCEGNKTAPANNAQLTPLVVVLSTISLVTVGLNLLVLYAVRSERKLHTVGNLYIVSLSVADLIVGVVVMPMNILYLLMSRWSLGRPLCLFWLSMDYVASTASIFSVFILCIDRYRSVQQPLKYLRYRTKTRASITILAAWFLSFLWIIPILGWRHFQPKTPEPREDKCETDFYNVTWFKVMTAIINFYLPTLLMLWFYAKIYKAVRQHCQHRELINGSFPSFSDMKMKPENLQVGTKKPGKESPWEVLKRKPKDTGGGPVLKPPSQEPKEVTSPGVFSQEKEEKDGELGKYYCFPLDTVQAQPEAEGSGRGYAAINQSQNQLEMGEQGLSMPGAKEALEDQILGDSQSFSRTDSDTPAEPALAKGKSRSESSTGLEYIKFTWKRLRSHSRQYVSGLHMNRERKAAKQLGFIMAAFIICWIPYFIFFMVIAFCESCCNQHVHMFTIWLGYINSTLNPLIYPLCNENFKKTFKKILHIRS

[10] = target: Potassium voltage-gated channel subfamily H member 2 (Bos taurus, UniProt A5PKI1)
[11] = target: 5-hydroxytryptamine receptor 3A (Bos taurus, UniProt F1N4Y2)
Vasopressin V1b receptor = Vasopressin V1b receptor (Bos taurus, UniProt F1ME85)
D(1A) dopamine receptor = D(1A) dopamine receptor (Bos taurus, UniProt Q95136)
[12] = target: 5-hydroxytryptamine receptor 5A (Bos mutus, UniProt L8HQU1)
Chain of 5-hydroxytryptamine receptor 5A (L8HQU1 whole entry): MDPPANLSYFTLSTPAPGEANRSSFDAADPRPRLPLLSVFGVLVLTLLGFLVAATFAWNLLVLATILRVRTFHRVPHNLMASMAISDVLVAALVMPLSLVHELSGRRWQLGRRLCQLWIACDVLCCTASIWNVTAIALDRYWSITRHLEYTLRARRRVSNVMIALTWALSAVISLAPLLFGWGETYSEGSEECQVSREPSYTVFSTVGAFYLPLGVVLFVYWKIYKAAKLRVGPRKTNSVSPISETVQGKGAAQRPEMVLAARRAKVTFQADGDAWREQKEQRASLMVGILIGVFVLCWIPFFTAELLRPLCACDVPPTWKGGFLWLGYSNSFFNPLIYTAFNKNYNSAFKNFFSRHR

[13] = target: Voltage-dependent L-type calcium channel subunit beta-2 (Bos taurus, UniProt Q9MZL5)
[14] = target: 4-aminobutyrate aminotransferase, mitochondrial (Bos taurus, UniProt Q9BGI0)
[15] = target: 5-hydroxytryptamine receptor 1B (Bos mutus, UniProt L8IGV0)
Chain of 5-hydroxytryptamine receptor 1B (L8IGV0 whole entry): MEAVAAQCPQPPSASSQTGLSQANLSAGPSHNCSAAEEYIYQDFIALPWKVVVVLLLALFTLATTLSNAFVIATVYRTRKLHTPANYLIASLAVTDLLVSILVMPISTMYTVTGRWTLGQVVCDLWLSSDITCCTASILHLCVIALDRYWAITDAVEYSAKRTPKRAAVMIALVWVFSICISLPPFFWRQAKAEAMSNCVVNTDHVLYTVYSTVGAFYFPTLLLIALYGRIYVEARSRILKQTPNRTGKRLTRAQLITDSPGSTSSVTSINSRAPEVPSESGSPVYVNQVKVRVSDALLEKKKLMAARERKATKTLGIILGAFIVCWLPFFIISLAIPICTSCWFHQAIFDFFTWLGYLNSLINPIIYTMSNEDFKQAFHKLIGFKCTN

Glutamate receptor [16] = target: Glutamate receptor (Bos taurus, UniProt A4FV91)
Chain of Glutamate receptor (Bos taurus, UniProt A4FV91) (A4FV91 whole entry): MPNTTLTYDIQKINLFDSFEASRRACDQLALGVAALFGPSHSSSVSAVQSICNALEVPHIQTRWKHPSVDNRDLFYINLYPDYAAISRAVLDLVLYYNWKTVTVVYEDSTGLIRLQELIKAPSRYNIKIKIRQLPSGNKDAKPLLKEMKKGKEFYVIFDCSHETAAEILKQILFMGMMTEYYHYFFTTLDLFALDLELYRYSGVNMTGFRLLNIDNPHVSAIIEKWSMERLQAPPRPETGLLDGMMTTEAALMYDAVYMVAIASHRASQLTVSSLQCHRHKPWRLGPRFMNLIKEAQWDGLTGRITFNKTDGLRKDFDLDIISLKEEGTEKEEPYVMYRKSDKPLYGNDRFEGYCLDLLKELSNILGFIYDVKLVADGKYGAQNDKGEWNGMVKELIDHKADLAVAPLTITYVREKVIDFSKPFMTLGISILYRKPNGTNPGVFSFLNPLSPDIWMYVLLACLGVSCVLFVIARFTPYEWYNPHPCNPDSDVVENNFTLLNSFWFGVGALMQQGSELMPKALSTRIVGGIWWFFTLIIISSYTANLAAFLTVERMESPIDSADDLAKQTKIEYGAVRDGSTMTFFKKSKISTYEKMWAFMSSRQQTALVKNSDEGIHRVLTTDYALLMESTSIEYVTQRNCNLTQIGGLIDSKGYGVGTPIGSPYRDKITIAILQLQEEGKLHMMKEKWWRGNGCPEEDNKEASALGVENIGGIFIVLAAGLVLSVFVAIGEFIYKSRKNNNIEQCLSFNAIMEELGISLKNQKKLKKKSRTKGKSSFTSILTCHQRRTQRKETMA

[17] = target: Sodium-dependent noradrenaline transporter (Bos taurus, UniProt P51143)
[18] = target: Kappa-type opioid receptor (Bos taurus, UniProt Q2KIP6)
Substance-K receptor = Substance-K receptor (Bos taurus, UniProt P05363)
[19] = target: 5-hydroxytryptamine receptor 6 (Bos mutus, UniProt L8HST4)
[20] = target: Gamma-aminobutyric acid receptor subunit alpha-1 (Bos taurus, UniProt P08219)
[21] = target: Sodium-dependent dopamine transporter (Bos taurus, UniProt P27922)
Thromboxane-A synthase = Thromboxane-A synthase (Bos taurus, UniProt Q2KIG5)
[22] = target: 5-hydroxytryptamine receptor 2A (Bos taurus, UniProt Q75Z89)

Chain of Beta-2 adrenergic receptor (Q28044 whole entry): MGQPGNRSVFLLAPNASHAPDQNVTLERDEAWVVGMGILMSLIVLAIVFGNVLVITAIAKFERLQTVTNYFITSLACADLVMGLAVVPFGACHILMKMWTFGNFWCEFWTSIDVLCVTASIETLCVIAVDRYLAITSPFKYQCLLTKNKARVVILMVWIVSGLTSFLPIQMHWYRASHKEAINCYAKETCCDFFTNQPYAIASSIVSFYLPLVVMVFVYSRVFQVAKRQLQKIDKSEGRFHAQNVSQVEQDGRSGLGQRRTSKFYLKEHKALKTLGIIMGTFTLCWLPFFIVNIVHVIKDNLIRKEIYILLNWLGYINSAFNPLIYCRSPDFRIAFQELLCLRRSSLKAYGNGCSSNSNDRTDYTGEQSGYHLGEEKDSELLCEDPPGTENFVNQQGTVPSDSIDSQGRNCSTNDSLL
Chain of 5-hydroxytryptamine receptor 2B (Q8MI09 whole entry): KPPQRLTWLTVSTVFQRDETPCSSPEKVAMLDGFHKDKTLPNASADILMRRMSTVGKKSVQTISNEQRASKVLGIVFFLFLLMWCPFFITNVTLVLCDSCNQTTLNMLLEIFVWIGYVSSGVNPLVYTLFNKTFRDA
Chain of Histamine receptor H3 (F1MML8 whole entry): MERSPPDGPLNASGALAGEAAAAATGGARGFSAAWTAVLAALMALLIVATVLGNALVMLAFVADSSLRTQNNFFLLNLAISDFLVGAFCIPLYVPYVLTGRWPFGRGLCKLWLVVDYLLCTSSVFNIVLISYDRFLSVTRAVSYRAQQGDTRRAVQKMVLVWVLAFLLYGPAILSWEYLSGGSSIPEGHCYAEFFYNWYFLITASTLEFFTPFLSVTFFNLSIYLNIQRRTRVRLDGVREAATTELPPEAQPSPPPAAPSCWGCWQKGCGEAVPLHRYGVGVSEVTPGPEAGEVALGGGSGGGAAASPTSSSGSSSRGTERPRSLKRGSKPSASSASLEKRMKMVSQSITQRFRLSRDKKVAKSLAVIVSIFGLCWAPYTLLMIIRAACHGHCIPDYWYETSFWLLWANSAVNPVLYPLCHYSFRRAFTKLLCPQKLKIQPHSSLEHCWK

Compound: COc1ccccc1N1CCN(CCCCn2ncc(=O)n(C)c2=O)CC1 [NSC_11603174]
- Ki (Dopamine receptor D4): 0.0218 µM
- Ki [1]: 0.0736 µM
- Ki (Histamine receptor H3): > 10 µM
- Ki [2]: > 10 µM
- Ki [3]: > 10 µM
- Ki (Cannabinoid receptor 2): > 10 µM
- Ki (Beta-arrestin-2): > 10 µM
- Ki (Glutamate receptor [4]): > 10 µM
- Ki (Neuromedin-K receptor): > 10 µM
- Ki [5]: 0.0129 µM
- Ki [6]: > 10 µM
- Ki (Mu-type opioid receptor): > 10 µM
- Ki (Beta-arrestin-1): > 10 µM
- Ki (Vasopressin V2 receptor): > 10 µM
- Ki [7]: > 10 µM
- Ki [8]: 0.00675 µM
- Ki (Vasopressin V1a receptor): > 10 µM
- Ki (D(2) dopamine receptor): > 10 µM
- Ki [9]: 0.0883 µM
- Ki (Histamine H2 receptor): 2.13 µM
- Ki (Nischarin): > 10 µM
- Ki (Protein lifeguard 1): > 10 µM
- Ki (Histamine H1 receptor): 1.03 µM
- Ki [10]: > 10 µM
- Ki [11]: > 10 µM
- Ki (Vasopressin V1b receptor): > 10 µM
- Ki (D(1A) dopamine receptor): > 10 µM
- Ki [12]: > 10 µM
- Ki [13]: > 10 µM
- Ki [14]: > 10 µM
- Ki [15]: 0.643 µM
- Ki (Glutamate receptor [16]): > 10 µM
- Ki [17]: > 10 µM
- Ki [18]: > 10 µM
- Ki (Substance-K receptor): > 10 µM
- Ki [19]: > 10 µM
- Ki [20]: > 10 µM
- Ki [21]: > 10 µM
- Ki (Thromboxane-A synthase): > 10 µM
- Ki [22]: 4.98 µM
